According to article PMC3551932, “STK295900, a Dual Inhibitor of Topoisomerase 1 and 2, Induces G2 Arrest in the Absence of DNA Damage” (PLoS ONE, 2013):
pIC50: −log10 of the molar value.

What was measured:
HeLa cells [1] = test: Flow cytometric analysis for cell cycle distribution; assay type: cell-based, human; conditions: 24 h, control around 25%
Description: For cell cycle analysis, HeLa cells were harvested following compound treatment for 24 h and stained with propidium iodide (PI) according to the instruction of Cycle Test Plus DNA Reagent kit from BD Biosciences (San Jose, CA). Flow cytometric analysis was performed using a FACSCalibur instrument (Becton Dickinson, San Jose, CA).
Figure 2 STK295900 induces G2 phase arrest in HeLa cells. (A) Flow cytometric analysis for cell cycle distribution. HeLa cells were treated with the indicated concentrations of STK295900 for 24 h. Treated cells were then stained with propidium iodide (PI) and processed for cell cycle analysis. The bar graph represents the mean percentage of each cell cycle phase ± SD from three independent experiments. * = p<0.05 versus the respective G1, S, or G2/M phase of DMSO-treated cells. (B) Mitotic index of STK295900. HeLa cells were treated with the indicated concentrations of STK295900 for 24 h. Cells were then stained with Hoechst 33342 and mitotic cells were counted. […] (C) Cell cycle related proteins expression. […] Treated cells were lysed and subjected to immunoblot analyses with antibodies against cyclin A, cyclin B1, phospho-Histone H3 (S10), and Histone H3. β-actin was used as a loading control.

HepG2 cells = test: Cell growth inhibition assay, HepG2; assay type: cell-based, human; conditions: Homo sapiens, HepG2, 96 h, growth up to 4 days
Source text: (§1) Human epitheloid cervical carcinoma HeLa cells, human breast adenocarcinoma MCF7 and MDA-MB-231cells, human hepatocellular carcinoma HepG2 cells, human colon adenocarcinoma HT-29 cells, and human colorectal carcinoma HCT-116 cells were purchased from ATCC® and maintained in DMEM medium. Human prostate carcinoma PC-3 cells (purchased from ATCC®), human gastric carcinoma SNU-484 and SNU-601(obtained from Korean Cell Line Bank (KCLB)), human leukemia K-562 and HL-60 cells (purchased from ATCC®), immortalized human prostate epithelial 267B1cells, and immortalized human embryonic lung fibroblast MRC5CV1 cells were maintained in RPMI 1640 medium whereas immortalized retinal pigment epithelial hTERT RPE-1 cells (purchased from ATCC®) were maintained in DMEM/F12 medium. All cell lines were cultured in media supplemented with 10% fetal bovine serum, 100 U/ml penicillin, and […] streptomycin at 37°C in a 5% CO2 incubator.
(§2) Cells were seeded at the appropriate amount (1–2×10^3 cells) in triplicate in 96-well plates for 24 h and then treated with various concentrations of STK295900. Cell growth was determined by using EZ-CyTox cell viability assay kit (Daeil Lab. Service, Seoul, Korea). Ten microliters of WST solution were added to the treated cells at 24, 48, 72, and 96 h. Cells were further incubated at 37°C for 2 h and the absorbance was measured at 450 nm.

K-562 cells = test: Cell growth inhibition assay, K-562; assay type: cell-based; conditions: Homo sapiens, K562, 96 h; Table 1; K-562, leukemia; growth up to 4 days
Source text: as §1, §2

SNU-484 cells = test: Cell growth inhibition assay, SNU-484; assay type: cell-based; conditions: Homo sapiens, 96 h; Table 1; SNU-484, gastric carcinoma; growth up to 4 days
Source text: as §1, §2

[2] = target: T1, calf thymus topoisomerase 1 (Bos taurus, UniProt F1MN93); test: Supercoiled DNA relaxation assay for topoisomerase 1; assay type: biochemical
T1 construct: purified calf thymus topoisomerase 1; purchased Takara Bio, Shiga, Japan; host or cells: calf thymus (tissue-purified)
T1 sequence (F1MN93 1-767): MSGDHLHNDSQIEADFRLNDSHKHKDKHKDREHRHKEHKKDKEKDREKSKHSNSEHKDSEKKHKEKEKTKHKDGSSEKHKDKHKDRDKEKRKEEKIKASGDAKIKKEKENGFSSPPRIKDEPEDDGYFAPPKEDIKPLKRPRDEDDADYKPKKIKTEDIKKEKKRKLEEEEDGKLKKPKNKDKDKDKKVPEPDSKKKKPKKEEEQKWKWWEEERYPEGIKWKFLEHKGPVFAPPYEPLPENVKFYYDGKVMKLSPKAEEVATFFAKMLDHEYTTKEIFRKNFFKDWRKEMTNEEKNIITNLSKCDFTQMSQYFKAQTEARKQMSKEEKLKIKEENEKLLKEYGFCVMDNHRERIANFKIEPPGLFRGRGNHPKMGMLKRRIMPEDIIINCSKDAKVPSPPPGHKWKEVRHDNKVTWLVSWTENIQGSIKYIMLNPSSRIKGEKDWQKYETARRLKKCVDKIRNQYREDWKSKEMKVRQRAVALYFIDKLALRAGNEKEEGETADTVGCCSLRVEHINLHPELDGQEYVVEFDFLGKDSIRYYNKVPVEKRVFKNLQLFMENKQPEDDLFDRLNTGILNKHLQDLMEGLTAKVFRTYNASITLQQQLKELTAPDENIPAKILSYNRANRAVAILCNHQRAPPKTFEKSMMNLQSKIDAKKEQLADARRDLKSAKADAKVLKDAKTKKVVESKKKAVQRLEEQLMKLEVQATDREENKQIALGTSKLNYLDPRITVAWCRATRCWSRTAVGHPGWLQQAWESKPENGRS

HeLa cells [3] = test: Mitotic index (Hoechst 33342 staining, mitotic cells counted); assay type: cell-based, human; conditions: various concentrations, 24 h
Source text: Given its strong growth inhibitory effect on various cancer cell types, STK295900 was examined to determine its effect on cell cycle distribution using flow cytometry analysis. […] We then analyzed whether the increasing G2/M population in Fig. 2A is indeed G2 or M phase by determining the mitotic index and investigating the cell cycle regulatory proteins. To determine mitotic index, the treated cells were stained with Hoechst 33342 and then mitotic cells were counted. […] (A) Flow cytometric analysis for cell cycle distribution. HeLa cells were treated with the indicated concentrations of STK295900 for 24 h. Treated cells were then stained with propidium iodide (PI) and processed for cell cycle analysis. The bar graph represents the mean percentage of each cell cycle phase ± SD from three independent experiments. * = p<0.05 versus the respective G1, S, or G2/M phase of DMSO-treated cells. […] HeLa cells were treated with the indicated concentrations of STK295900 for 24 h. Cells were then stained with Hoechst 33342 and mitotic cells were counted. […] (C) Cell cycle related proteins expression.

HT-29 cells = test: Cell growth inhibition assay, HT-29; assay type: cell-based, human; conditions: Homo sapiens, HT-29, 96 h, growth up to 4 days
Source text: as §1, §2

DNA gyrase = conditions: targeting DNA gyrase; cited from earlier work

For `Nc1ccc(-c2nc3ccc(-c4ccc5nc(-c6ccc(N)cc6)[nH]c5c4)cc3[nH]2)cc1` [STK295900, 4,4′-(3H,3′H-5,5′-bibenzimidazole-2,2′-diyl)dianiline], the G2/M population (HeLa cells [1]; 0.5 µM) was “about 35%”, the G2/M population (HeLa cells [1]; 1 µM) was ~55% and the G2/M population (HeLa cells [1]; 5 µM) was ~65%. The pIC50 (HepG2 cells; Table 1, HepG2, hepatocellular carcinoma) was 6.77, the pIC50 (HepG2 cells; Table 2 comparison, HepG2) was 6.85 and the pIC50 (K-562 cells) was 5.86. The pIC50 (SNU-484 cells) was 5.92, the “supercoiled DNA at high concentrations (Top 1 catalytic activity)” value ([2]; high concentrations (50 and 100 µM)) was “supercoiled DNA could be observed” and the “Top 1-mediated DNA relaxation” value ([2]; pBR322, 37°C, 30 min, various concentrations) was “inhibited DNA relaxation activity of Top 1 in a dose-dependent manner”. For the same molecule, the mitotic index (HeLa cells [3]) was “no significant change in mitotic index”, the pIC50 (HT-29 cells; Table 1, HT-29, colon adenocarcinoma) was 6.57 and the pIC50 (HT-29 cells; Table 2 comparison, HT-29) was 6.68. For the same molecule, the anti-staphylococcal activity (DNA gyrase) was “potent anti-staphylococcal agent”.
